Test results taken from publication PMC4503722, “Novel Phenotypic Outcomes Identified for a Public Collection of Approved Drugs from a Publicly Accessible Panel of Assays” (PLoS ONE, 2015).

Columns and labels:
[1] = test system: DLD-1; assay: cells; assay type: cell-based
[2] = test system: SW480; assay: cells; assay type: cell-based
[3] = test system: ECFC/ADSC co-culture cell nuclei number
[4] = test system: HCT116; assay: cells; assay type: cell-based; conditions: basal
[5] = test system: HCT116 cells treated with a GSK3β inhibitor; assay: cells; assay type: cell-based; conditions: for IC50/EC50, GSK3b inh pretreated_Viability ATP HCT116 (assay number 26): GSK3b inh pretreated
[6] = test system: HT-29; assay: cells; assay type: cell-based
[7] = test system: endothelial tube formation in co-cultures of ECFCs and ADSCs treated with VEGF; assay: cells; assay type: cell-based, human
[8] = test system: SNU-C1; assay: cells; assay type: cell-based
[9] = test system: Colo320; assay: cells; assay type: cell-based
[10] = test system: RKO; assay: cells; assay type: cell-based
[11] = assay number 23, concentration response
[12] = assay number 24, concentration response
[13] = assay number 25, concentration response
[14] = assay number 26, GSK3b inhibitor pretreated, concentration response
[15] = assay number 28, concentration response
[16] = assay number 30, concentration response
[17] = assay number 27, concentration response
[18] = assay number 29, concentration response
[19] = assay number 26, GSK3b inhibitor pretreated

**Q.** What does the source list for `CN1CCN(CCCN2c3ccccc3Sc3ccc(S(=O)(=O)N(C)C)cc32)CC1` [NCGC00179625-03]?
**A.** IC50/EC50, Basal_Viability ATP DLD-1 (assay number 23) ([1]; basal): 14.5523 µM; IC50/EC50, Basal_Viability ATP SW480 (assay number 24) ([2]; basal): > 20 µM; IC50/EC50, VEGF_ADSC\ECFC Angio Hoechst NucArea (assay number 3) [3]: > 10 µM; IC50/EC50, Basal_Viability ATP HCT116 (assay number 25) [4]: > 20 µM; IC50/EC50, GSK3b inh pretreated_Viability ATP HCT116 (assay number 26) [5]: > 20 µM; IC50/EC50, Basal_Viability ATP HT-29 (assay number 28) ([6]; basal): > 20 µM; IC50/EC50, VEGF_ADSC\ECFC Angio CD31 TubeArea (assay number 2) [7]: > 10 µM; IC50/EC50, Basal_Viability ATP SNU-C1 (assay number 30) ([8]; basal): 2.1198 µM; IC50/EC50, Basal_Viability ATP Colo 320 (assay number 27) ([9]; basal): 8.1661 µM; IC50/EC50, Basal_Viability ATP RKO (assay number 29) ([10]; basal): 5.9932 µM

**Q.** For `N/C(=N\N=C\c1ccc(Cl)cc1)N/N=C/c1ccc(Cl)cc1` [NCGC00181026-02], which “IC50/EC50, Basal_Viability ATP DLD-1 (assay number 23)” value ([1]; basal) is on record?
**A.** The value was 0.6538 µM.

**Q.** What about the “IC50/EC50, Basal_Viability ATP SW480 (assay number 24)” value ([2]; basal) of the same molecule?
**A.** Its value is 0.2252 µM.

**Q.** And the “IC50/EC50, VEGF_ADSC\ECFC Angio Hoechst NucArea (assay number 3)” value [3]?
**A.** The value was greater than 10 µM.

**Q.** What about the “IC50/EC50, Basal_Viability ATP HCT116 (assay number 25)” value [4] of the same molecule?
**A.** The value was 0.394 µM.

**Q.** What about the “IC50/EC50, GSK3b inh pretreated_Viability ATP HCT116 (assay number 26)” value [5] of the same molecule?
**A.** Its value is 0.3442 µM.

**Q.** What about the “IC50/EC50, Basal_Viability ATP HT-29 (assay number 28)” value ([6]; basal) of the same molecule?
**A.** Its value is 0.6811 µM.

**Q.** What about the “IC50/EC50, VEGF_ADSC\ECFC Angio CD31 TubeArea (assay number 2)” value [7] of the same molecule?
**A.** Its value is greater than 10 µM.

**Q.** And the “IC50/EC50, Basal_Viability ATP SNU-C1 (assay number 30)” value ([8]; basal)?
**A.** Its value is 0.2795 µM.

**Q.** What about the “IC50/EC50, Basal_Viability ATP Colo 320 (assay number 27)” value ([9]; basal) of the same molecule?
**A.** Its value is 0.4583 µM.

**Q.** And the “IC50/EC50, Basal_Viability ATP RKO (assay number 29)” value ([10]; basal)?
**A.** Its value is 0.47 µM.

**Q.** What does the source list for `CC(C)(CO)[C@@H](O)C(=O)NCCC(=O)NCCSSCCNC(=O)CCNC(=O)[C@H](O)C(C)(C)CO` [NCGC00181028-02]?
**A.** Basal_Viability ATP DLD-1 IC50/EC50 [1, 11]: > 20 µM; Basal_Viability ATP SW480 IC50/EC50 [2, 12]: > 20 µM; VEGF_ADSC\ECFC Angio Hoechst NucArea IC50/EC50 [3]: > 10 µM; Basal_Viability ATP HCT116 IC50/EC50 [4, 13]: > 20 µM; GSK3b inh pretreated_Viability ATP HCT116 IC50/EC50 [5, 14]: > 20 µM; Basal_Viability ATP HT-29 IC50/EC50 [6, 15]: > 20 µM; VEGF_ADSC\ECFC Angio CD31 TubeArea IC50/EC50 [7]: > 10 µM; Basal_Viability ATP SNU-C1 IC50/EC50 [8, 16]: > 20 µM; Basal_Viability ATP Colo 320 IC50/EC50 [9, 17]: > 20 µM; Basal_Viability ATP RKO IC50/EC50 [10, 18]: > 20 µM

**Q.** With `CC(CC=O)CCCC(C)(C)O` (stereo not shown) [NCGC00181031-03] as the molecule, how does the “Basal_Viability ATP DLD-1 IC50/EC50” value ([1]; assay number 23, basal) read?
**A.** The value was greater than 20 µM.

**Q.** What about the “Basal_Viability ATP SW480 IC50/EC50” value ([2]; assay number 24, basal) of the same molecule?
**A.** Its value is greater than 20 µM.

**Q.** And the “VEGF_ADSC\ECFC Angio Hoechst NucArea IC50/EC50” value [3]?
**A.** The value was greater than 10 µM.

**Q.** And the “Basal_Viability ATP HCT116 IC50/EC50” value ([4]; assay number 25)?
**A.** The value was greater than 20 µM.

**Q.** And the “GSK3b inh pretreated_Viability ATP HCT116 IC50/EC50” value [5, 19]?
**A.** The value was greater than 20 µM.

**Q.** What about the “Basal_Viability ATP HT-29 IC50/EC50” value ([6]; assay number 28, basal) of the same molecule?
**A.** Its value is greater than 20 µM.

**Q.** What about the “VEGF_ADSC\ECFC Angio CD31 TubeArea IC50/EC50” value [7] of the same molecule?
**A.** The value was greater than 10 µM.

**Q.** And the “Basal_Viability ATP SNU-C1 IC50/EC50” value ([8]; assay number 30, basal)?
**A.** Its value is greater than 20 µM.

**Q.** What about the “Basal_Viability ATP Colo 320 IC50/EC50” value ([9]; assay number 27, basal) of the same molecule?
**A.** The value was greater than 20 µM.

**Q.** And the “Basal_Viability ATP RKO IC50/EC50” value ([10]; assay number 29, basal)?
**A.** Its value is greater than 20 µM.

**Q.** Which “Basal_Viability ATP DLD-1 IC50/EC50” value [1, 11] does the source give for `CC(C)[C@@H]1CC[C@@H](C)C[C@H]1OC(=O)c1ccccc1O` [NCGC00181042-02] here?
**A.** Its value is greater than 20 µM.

**Q.** And the “Basal_Viability ATP SW480 IC50/EC50” value [2, 12]?
**A.** Its value is greater than 20 µM.

**Q.** What about the “VEGF_ADSC\ECFC Angio Hoechst NucArea IC50/EC50” value [3] of the same molecule?
**A.** The value was greater than 10 µM.

**Q.** What about the “Basal_Viability ATP HCT116 IC50/EC50” value [4, 13] of the same molecule?
**A.** The value was greater than 20 µM.

**Q.** What about the “GSK3b inh pretreated_Viability ATP HCT116 IC50/EC50” value [5, 14] of the same molecule?
**A.** Its value is greater than 20 µM.

**Q.** What about the “Basal_Viability ATP HT-29 IC50/EC50” value [6, 15] of the same molecule?
**A.** The value was greater than 20 µM.

**Q.** And the “VEGF_ADSC\ECFC Angio CD31 TubeArea IC50/EC50” value [7]?
**A.** The value was greater than 10 µM.

**Q.** And the “Basal_Viability ATP SNU-C1 IC50/EC50” value [8, 16]?
**A.** Its value is greater than 20 µM.

**Q.** What about the “Basal_Viability ATP Colo 320 IC50/EC50” value [9, 17] of the same molecule?
**A.** The value was greater than 20 µM.

**Q.** And the “Basal_Viability ATP RKO IC50/EC50” value [10, 18]?
**A.** Its value is greater than 20 µM.

**Q.** `CC(C)=CCC/C(C)=C/CC/C(C)=C/CC/C=C(\C)CC/C=C(\C)CCC=C(C)C` [NCGC00181323-02] was tested. Which IC50 ([1]; assay number 23, basal, read-out: Basal_Viability ATP DLD-1 summarized IC50) did it give?
**A.** The IC50 was greater than 20 µM.

**Q.** And the IC50 ([2]; assay number 24, basal, read-out: Basal_Viability ATP SW480 summarized IC50)?
**A.** The IC50 was greater than 20 µM.

**Q.** What about the IC50 ([3]; read-out: VEGF_ADSC\ECFC Angio Hoechst NucArea summarized IC50) of the same molecule?
**A.** Its IC50 is greater than 10 µM.

**Q.** What about the IC50 ([4]; assay number 25, read-out: Basal_Viability ATP HCT116 summarized IC50) of the same molecule?
**A.** The IC50 was greater than 20 µM.

**Q.** And the IC50 ([5]; assay number 26, GSK3b inhibitor pretreated, read-out: GSK3b inh pretreated_Viability ATP HCT116 summarized IC50)?
**A.** The IC50 was greater than 20 µM.

**Q.** What about the IC50 ([6]; assay number 28, basal, read-out: Basal_Viability ATP HT-29 summarized IC50) of the same molecule?
**A.** The IC50 was greater than 20 µM.

**Q.** What about the IC50 ([7]; read-out: VEGF_ADSC\ECFC Angio CD31 TubeArea summarized IC50) of the same molecule?
**A.** Its IC50 is greater than 10 µM.

**Q.** What about the IC50 ([8]; assay number 30, basal, read-out: Basal_Viability ATP SNU-C1 summarized IC50) of the same molecule?
**A.** Its IC50 is greater than 20 µM.

**Q.** And the IC50 ([9]; assay number 27, basal, read-out: Basal_Viability ATP Colo 320 summarized IC50)?
**A.** Its IC50 is greater than 20 µM.

**Q.** What about the IC50 ([10]; assay number 29, basal, read-out: Basal_Viability ATP RKO summarized IC50) of the same molecule?
**A.** The IC50 was greater than 20 µM.

**Q.** With `CCOC(=O)[C@H](CCc1ccccc1)N[C@@H](C)C(=O)N1C(=O)N(C)C[C@H]1C(=O)O.Cl` [NCGC00181342-02] as the molecule, how does the “Basal_Viability ATP DLD-1 IC50/EC50” value ([1]; assay number 23, basal) read?
**A.** The value was greater than 20 µM.

**Q.** What about the “Basal_Viability ATP SW480 IC50/EC50” value ([2]; assay number 24, basal) of the same molecule?
**A.** Its value is greater than 20 µM.

**Q.** What about the “VEGF_ADSC\ECFC Angio Hoechst NucArea IC50/EC50” value [3] of the same molecule?
**A.** Its value is greater than 10 µM.

**Q.** What about the “Basal_Viability ATP HCT116 IC50/EC50” value ([4]; assay number 25) of the same molecule?
**A.** Its value is greater than 20 µM.

**Q.** And the “GSK3b inh pretreated_Viability ATP HCT116 IC50/EC50” value [5, 19]?
**A.** The value was greater than 20 µM.

**Q.** And the “Basal_Viability ATP HT-29 IC50/EC50” value ([6]; assay number 28, basal)?
**A.** Its value is greater than 20 µM.

**Q.** What about the “VEGF_ADSC\ECFC Angio CD31 TubeArea IC50/EC50” value [7] of the same molecule?
**A.** The value was greater than 10 µM.

**Q.** And the “Basal_Viability ATP SNU-C1 IC50/EC50” value ([8]; assay number 30, basal)?
**A.** The value was greater than 20 µM.

**Q.** And the “Basal_Viability ATP Colo 320 IC50/EC50” value ([9]; assay number 27, basal)?
**A.** The value was greater than 20 µM.

**Q.** What about the “Basal_Viability ATP RKO IC50/EC50” value ([10]; assay number 29, basal) of the same molecule?
**A.** Its value is greater than 20 µM.
